These results are taken from PMC3669315, “Dissociations in the Effects of β2-Adrenergic Receptor Agonists on cAMP Formation and Superoxide Production in Human Neutrophils: Support for the Concept of Functional Selectivity” (PLoS ONE, 2013).

The target of assay [1] is T1, β2-adrenergic receptor (β2AR) on human neutrophils (Homo sapiens, UniProt P07550).
T1 construct: gene ADRB2; native full-length receptor in intact neutrophils isolated from venous blood or buffy coat of healthy volunteers
The assay can be described thus: cAMP accumulation, HPLC-MS/MS. It is filed as cell-based. Conditions: intact neutrophils, […] IBMX, […] °C, read-out: cAMP assay (β2AR on neutrophil granulocytes) / pEC50 ± S.E.M. (EC50 in μM) (converted).

Assay [2] addresses T1, β2-adrenergic receptor (β2AR) on human neutrophils. The assay is described as follows: inhibition of fMLP-stimulated superoxide production, ferricytochrome c reduction. It is filed as cell-based. Conditions: agonist potency, downstream functional read-out, intact neutrophils, […] fMLP, cytochalasin B, read-out: O2 ^•- assay (β2AR on neutrophil granulocytes) / pIC50 ± S.E.M. (IC50 in μM) (converted). An excerpt:
inhibition of fMLP-stimulated superoxide production, ferricytochrome c reduction on β2-adrenergic receptor (β2AR) on human neutrophils

Like-named read-outs stand apart in the source and are kept apart here.

T1 sequence (P07550 whole entry): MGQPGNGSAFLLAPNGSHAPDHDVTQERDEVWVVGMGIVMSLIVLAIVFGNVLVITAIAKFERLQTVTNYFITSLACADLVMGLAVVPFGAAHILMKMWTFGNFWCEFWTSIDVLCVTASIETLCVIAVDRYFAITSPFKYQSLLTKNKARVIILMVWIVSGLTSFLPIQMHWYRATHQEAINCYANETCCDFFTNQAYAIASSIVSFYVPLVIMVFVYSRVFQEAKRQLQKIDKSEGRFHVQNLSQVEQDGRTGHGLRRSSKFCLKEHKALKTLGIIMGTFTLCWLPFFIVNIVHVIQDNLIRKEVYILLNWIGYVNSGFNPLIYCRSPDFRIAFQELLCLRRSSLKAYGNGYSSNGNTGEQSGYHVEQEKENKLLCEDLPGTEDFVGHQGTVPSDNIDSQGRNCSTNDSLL

As for `CC(CCc1ccc(O)cc1)NCCc1ccc(O)c(O)c1` (racemic) [DOB, (±)-dobutamine], the EC50 in assay [1] (partial agonist) was 13.8 µM.

Consider `CC(C)NCC(O)c1ccc(Cl)c(Cl)c1` (racemic) [DCI, (±)-dichlorisoproterenol], for which the IC50 in assay [2] is 39.8 µM. For the same compound, the EC50 in assay [1] (agonist mode, table prints pEC50 <[…] as ( […]), text: no agonistic activity up to […]) was above 100 µM.
